Measured values taken from PubChem BioAssay (NCI).
Several values for one entry are separate records, joined by “and”; a condition that tells them apart may be missing. Identical values can stand only once.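 How tested: cells in 96-well plates exposed to compound for 48 hours at five concentrations. The concentration for 50% growth inhibition is given as GI50. Definition used: TGI = concentration required for complete inhibition of growth.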

How the values were obtained:
Assay in all cases: NCI tumour cell line growth inhibition, 48 h
786-0 renal = tested on: 786-0 renal
A498 renal = tested on: A498 renal
A549 NSCLC = tested on: A549 NSCLC
BT-549 breast = tested on: BT-549 breast
CCRF-CEM leukemia = tested on: CCRF-CEM leukemia
COLO 205 colon = tested on: COLO 205 colon
DLD-1 colon = tested on: DLD-1 colon
DMS 114 small cell lung = tested on: DMS 114 small cell lung
DMS 273 small cell lung = tested on: DMS 273 small cell lung
EKVX NSCLC = tested on: EKVX NSCLC
HCC-2998 colon = tested on: HCC-2998 colon
HCT-116 colon = tested on: HCT-116 colon
HCT-15 colon = tested on: HCT-15 colon
HL-60(TB) leukemia = tested on: HL-60(TB) leukemia
HOP-18 NSCLC = tested on: HOP-18 NSCLC
HS 578T breast = tested on: HS 578T breast
HT29 colon = tested on: HT29 colon
IGROV1 ovarian = tested on: IGROV1 ovarian
K-562 leukemia = tested on: K-562 leukemia
KM12 colon = tested on: KM12 colon
KM20L2 colon = tested on: KM20L2 colon
M14 melanoma = tested on: M14 melanoma
M19-MEL melanoma = tested on: M19-MEL melanoma
MALME-3M melanoma = tested on: MALME-3M melanoma
MCF7 breast = tested on: MCF7 breast
MDA-MB-231 breast = tested on: MDA-MB-231 breast
MDA-MB-435 = tested on: MDA-MB-435
MDA-N = tested on: MDA-N
NCI-H23 lung = tested on: NCI-H23 lung
NCI-H460 lung = tested on: NCI-H460 lung
NCI-H522 lung = tested on: NCI-H522 lung
OVCAR-5 ovarian = tested on: OVCAR-5 ovarian
P388 leukemia = tested on: P388 leukemia
P388/ADR leukemia = tested on: P388/ADR leukemia
RPMI-8226 leukemia = tested on: RPMI-8226 leukemia
RXF 393 renal = tested on: RXF 393 renal
SF-268 CNS = tested on: SF-268 CNS
SF-539 CNS = tested on: SF-539 CNS
SK-MEL-28 melanoma = tested on: SK-MEL-28 melanoma
SK-MEL-5 melanoma = tested on: SK-MEL-5 melanoma
SN12K1 renal = tested on: SN12K1 renal
SNB-19 CNS = tested on: SNB-19 CNS
SNB-78 CNS = tested on: SNB-78 CNS
SR leukemia = tested on: SR leukemia
SW-620 colon = tested on: SW-620 colon
T-47D breast = tested on: T-47D breast
U251 CNS = tested on: U251 CNS
UACC-257 melanoma = tested on: UACC-257 melanoma
UACC-62 melanoma = tested on: UACC-62 melanoma
XF 498 CNS = tested on: XF 498 CNS

CN1N=C(N)c2cn(C3OC(COP(=O)(O)O)C(O)C3O)c3ncnc1c23 (configuration not stated)
TGI (786-0 renal): 500 µM and 1650 µM and > 3510 µM | GI50 (A498 renal): 68.5 µM and 40.6 µM | TGI (A498 renal): 391 µM and 1650 µM and 713 µM | TGI (A549 NSCLC): 500 µM and 1650 µM and > 4780 µM | GI50 (BT-549 breast): 20.1 µM and 4.86 µM | TGI (BT-549 breast): 135 µM and 626 µM and 114 µM | TGI (CCRF-CEM leukemia): 500 µM and 1650 µM and > 5000 µM | TGI (COLO 205 colon): 499 µM and > 1650 µM and 2170 µM | TGI (DLD-1 colon): 617 µM | TGI (DMS 114 small cell lung): > 4300 µM | TGI (DMS 273 small cell lung): > 5000 µM | TGI (EKVX NSCLC): 500 µM and 1650 µM and 360 µM | TGI (HCC-2998 colon): 500 µM and 1650 µM and > 4830 µM | TGI (HCT-116 colon): 468 µM and 1650 µM and > 4540 µM | TGI (HCT-15 colon): 500 µM and 1650 µM and 2630 µM | TGI (HL-60(TB) leukemia): 114 µM and 123 µM and 116 µM | TGI (HOP-18 NSCLC): 333 µM | TGI (HS 578T breast): 232 µM and 341 µM and 144 µM | TGI (HT29 colon): 500 µM and 1650 µM and > 4630 µM | TGI (IGROV1 ovarian): 500 µM and 1650 µM and 918 µM | TGI (K-562 leukemia): 500 µM and > 1650 µM and > 5000 µM | TGI (KM12 colon): 500 µM and > 1650 µM and > 5000 µM | TGI (KM20L2 colon): > 4370 µM | TGI (M14 melanoma): 500 µM and 1650 µM and 1670 µM | TGI (M19-MEL melanoma): > 4220 µM | TGI (MALME-3M melanoma): 305 µM and 1650 µM and 2090 µM | TGI (MCF7 breast): 500 µM and 1650 µM and 3650 µM | TGI (MDA-MB-231 breast): 163 µM and 259 µM | TGI (MDA-MB-435): 363 µM and 671 µM | GI50 (MDA-N): 25.2 µM | TGI (MDA-N): 390 µM and > 1530 µM | TGI (NCI-H23 lung): 500 µM and 1650 µM and 4180 µM | TGI (NCI-H460 lung): 500 µM and > 1650 µM and 3460 µM | TGI (NCI-H522 lung): 500 µM and > 1650 µM and > 5000 µM | TGI (OVCAR-5 ovarian): 207 µM and 1650 µM and 475 µM | TGI (P388 leukemia): 7.87 µM | TGI (P388/ADR leukemia): 2.94 µM | GI50 (RPMI-8226 leukemia): 143 µM | TGI (RPMI-8226 leukemia): 500 µM and > 4750 µM | GI50 (RXF 393 renal): 41.9 µM | TGI (RXF 393 renal): 236 µM and 462 µM and 460 µM | TGI (SF-268 CNS): 500 µM and 1650 µM and > 4850 µM | TGI (SF-539 CNS): 162 µM and 807 µM and 208 µM | GI50 (SK-MEL-28 melanoma): 118 µM and 312 µM | TGI (SK-MEL-28 melanoma): 500 µM and 1650 µM and 2420 µM | TGI (SK-MEL-5 melanoma): 500 µM and > 1650 µM and > 4390 µM | TGI (SN12K1 renal): > 5000 µM | TGI (SNB-19 CNS): 455 µM and 1650 µM and 3170 µM | TGI (SNB-78 CNS): 2910 µM | TGI (SR leukemia): 500 µM and > 1650 µM and > 5000 µM | TGI (SW-620 colon): 500 µM and > 1650 µM and > 4130 µM | TGI (T-47D breast): 327 µM and 1650 µM and 269 µM | TGI (U251 CNS): 500 µM and 1650 µM and > 5000 µM | TGI (UACC-257 melanoma): 500 µM and 1650 µM and 4660 µM | GI50 (UACC-62 melanoma): 22.6 µM and 96.1 µM | TGI (UACC-62 melanoma): 290 µM and 1650 µM and 1880 µM | TGI (XF 498 CNS): 44.9 µM
